Measured values as given in ChEMBL document CHEMBL1153031, “Evaluation of anti-inflammatory effect of synthetic 1,5-bis(4-acetoxy-3-methoxyphenyl)-1,4-pentadien-3-one, HB2” (Bioorg Med Chem, 2009).
Activity calls are given as the source filed them. The calls are words filed in the database; no cut-off is given here.

How the values were obtained:
Mus musculus [1] = test: Antiinflammatory activity against carrageenan-induced paw oedema in mouse at 1 mg/kg, ip treated 30 mins before carrageenan challenge measured after 4 hrs by plethysmometry analysis; format: functional; details: route intraperitoneal
Mus musculus [2] = test: Antiinflammatory activity against bradykinin-induced paw oedema in mouse at 1 mg/kg, ip treated 30 mins before bradykinin challenge measured after 30 mins by plethysmometry analysis; format: functional; details: route intraperitoneal
Mus musculus [3] = test: Antiinflammatory activity against bradykinin-induced paw oedema in mouse at 1 mg/kg, ip treated 30 mins before bradykinin challenge measured after 15 mins by plethysmometry analysis; format: functional; details: route intraperitoneal
Mus musculus [4] = test: Antiinflammatory activity against carrageenan-induced paw oedema in mouse at 1 mg/kg, ip treated 30 mins before carrageenan challenge measured after 1 hr by plethysmometry analysis; format: functional; details: route intraperitoneal
Mus musculus [5] = test: Antiinflammatory activity against bradykinin-induced paw oedema in mouse at 1 mg/kg, ip treated 30 mins before bradykinin challenge measured after 120 mins by plethysmometry analysis; format: functional; details: route intraperitoneal
Mus musculus [6] = test: Antiinflammatory activity against carrageenan-induced paw oedema in mouse at 1 mg/kg, ip treated 30 mins before carrageenan challenge measured after 6 hrs by plethysmometry analysis; format: functional; details: route intraperitoneal
Mus musculus [7] = test: Antiinflammatory activity against bradykinin-induced paw oedema in mouse at 1 mg/kg, ip treated 30 mins before bradykinin challenge measured after 60 mins by plethysmometry analysis; format: functional; details: route intraperitoneal
Mus musculus [8] = test: Antiinflammatory activity against carrageenan-induced paw oedema in mouse at 1 mg/kg, ip treated 30 mins before carrageenan challenge measured after 5 hrs by plethysmometry analysis; format: functional; details: route intraperitoneal
Mus musculus [9] = test: Antiinflammatory activity against carrageenan-induced paw oedema in mouse at 1 mg/kg, ip treated 30 mins before carrageenan challenge measured after 2 hrs by plethysmometry analysis; format: functional; details: route intraperitoneal
Mus musculus [10] = test: Antiinflammatory activity against bradykinin-induced paw oedema in mouse at 1 mg/kg, ip treated 30 mins before bradykinin challenge measured after 240 mins by plethysmometry analysis; format: functional; details: route intraperitoneal
Mus musculus [11] = test: Antiinflammatory activity against carrageenan-induced paw oedema in mouse at 10 mg/kg, ip treated 30 mins before carrageenan challenge measured after 5 hrs by plethysmometry analysis; format: functional; details: route intraperitoneal
Mus musculus [12] = test: Antiinflammatory activity in mouse assessed as neutrophil population in peritoneal exudate during carrageenan-induced inflammation at 0.5 mg/kg, sc administered 4 hrs before carrageenan challenge measured after 4 hrs by myeloperoxidase activity assay; format: functional; details: route subcutaneous
Mus musculus [13] = test: Antiinflammatory activity in mouse peritoneal cavity assessed as reduction in cell migration during carrageenan-induced inflammation at 1 mg/kg, ip administered 30 mins before carrageenan challenge measured after 4 hrs; format: functional, organism-based; set-up: dose 1 mg/kg
RAW264.7 [14] = test: Antiinflammatory activity in mouse RAW264.7 cells assessed as inhibition of LPS-induced PGE2 production at 100 uM after 24 hrs by enzyme immunoassay; format: functional; details: RAW264.7, 24 h
Mus musculus [15] = test: Antiinflammatory activity against carrageenan-induced paw oedema in mouse at 10 mg/kg, ip treated 30 mins before carrageenan challenge measured after 2 hrs by plethysmometry analysis; format: functional; details: route intraperitoneal
RAW264.7 [16] = test: Antiinflammatory activity in mouse RAW264.7 cells assessed as inhibition of LPS-induced PGE2 production at 10 uM after 24 hrs by enzyme immunoassay; format: functional; details: RAW264.7, 24 h
RAW264.7 [17] = test: Reduction in LPS-induced nitric oxide production in mouse RAW264.7 cells at 1 uM after 24 hrs by Griess assay (Rvb=74.2 +/- 1.6 uM); format: functional
RAW264.7 [18] = test: Reduction in LPS-induced nitric oxide production in mouse RAW264.7 cells at 3 uM after 24 hrs by Griess assay (Rvb=74.2 +/- 1.6 uM); format: functional
Mus musculus [19] = test: Antiinflammatory activity against bradykinin-induced paw oedema in mouse at 10 mg/kg, ip treated 30 mins before bradykinin challenge measured after 15 mins by plethysmometry analysis; format: functional; details: route intraperitoneal
Mus musculus [20] = test: Neurotoxicity in mouse assessed as depression activity at 10 mg/kg, ip treated 15 mins before test measured after 60 seconds by rotarod test; format: toxicity, organism-based; set-up: dose 10 mg/kg, route intraperitoneal; details: in vivo, 0.25 h
Mus musculus [21] = test: Antiinflammatory activity against bradykinin-induced paw oedema in mouse at 10 mg/kg, ip treated 30 mins before bradykinin challenge measured after 240 mins by plethysmometry analysis; format: functional; details: route intraperitoneal
RAW264.7 [22] = test: Reduction in LPS-induced nitric oxide production in mouse RAW264.7 cells at 10 uM after 24 hrs by Griess assay (Rvb=74.2 +/- 1.6 uM); format: functional
[23] = Cytotoxicity against mouse RAW264.7 cells assessed as cell viability at 1 uM after 24 hrs by MTT assay; format: cell-based; details: read-out: Activity
Mus musculus [24] = test: Antiinflammatory activity against carrageenan-induced paw oedema in mouse at 10 mg/kg, ip treated 30 mins before carrageenan challenge measured after 6 hrs by plethysmometry analysis; format: functional; details: route intraperitoneal
Mus musculus [25] = test: Antiinflammatory activity in mouse assessed as reduction in total cell count in peritoneal exudate during carrageenan-induced inflammation at 10 mg/kg, ip administered 30 mins before carrageenan challenge measured after 4 hrs; format: functional; set-up: scale not given: the % may be the effect or the level left; details: route intraperitoneal
Mus musculus [26] = test: Antiinflammatory activity against bradykinin-induced paw oedema in mouse at 10 mg/kg, ip treated 30 mins before bradykinin challenge measured after 120 mins by plethysmometry analysis; format: functional; details: route intraperitoneal
Mus musculus [27] = test: Neurotoxicity in mouse assessed as depression activity at 1 mg/kg, ip administered 15 mins before test measured after 60 seconds by rotarod test; format: toxicity, organism-based; set-up: dose 1 mg/kg, route intraperitoneal; details: in vivo, 0.25 h
Mus musculus [28] = test: Antiinflammatory activity in mouse peritoneal cavity assessed as reduction in cell migration during carrageenan-induced inflammation at 0.1 mg/kg, ip administered 30 mins before carrageenan challenge measured after 4 hrs; format: functional, organism-based; set-up: dose 0.1 mg/kg
Mus musculus [29] = test: Antinociceptive activity against formalin-induced nociception in mouse assessed as inhibition of paw licking time at 10 mg/kg, ip administered 30 mins before formalin challenge measured after 30 mins relative to control; format: functional; details: route intraperitoneal
Mus musculus [30] = test: Antinociceptive activity against formalin-induced nociception in ip dosed mouse assessed as inhibition of paw licking time administered 30 mins before formalin challenge measured after 30 mins; format: functional, organism-based
Mus musculus [31] = test: Antiinflammatory activity in mouse assessed as neutrophil population in peritoneal exudate during carrageenan-induced inflammation at 10 mg/kg, ip administered 30 mins before carrageenan challenge measured after 4 hrs by myeloperoxidase activity assay; format: functional; details: route intraperitoneal
RAW264.7 [32] = test: Antiinflammatory activity in mouse RAW264.7 cells assessed as inhibition of LPS-induced PGE2 production at 3 uM after 24 hrs by enzyme immunoassay; format: functional; details: RAW264.7, 24 h
Mus musculus [33] = test: Antiinflammatory activity in mouse assessed as neutrophil population in peritoneal exudate during carrageenan-induced inflammation at 1 mg/kg, ip administered 30 mins before carrageenan challenge measured after 4 hrs by myeloperoxidase activity assay; format: functional; details: route intraperitoneal
Mus musculus [34] = test: Antiinflammatory activity against carrageenan-induced paw oedema in mouse at 10 mg/kg, ip treated 30 mins before carrageenan challenge measured after 1 hr by plethysmometry analysis; format: functional; details: route intraperitoneal
Mus musculus [35] = test: Neurotoxicity in mouse assessed as muscular impairment at 1 mg/kg, ip administered 15 mins before test measured after 60 seconds by rotarod test; format: toxicity, organism-based; set-up: dose 1 mg/kg, route intraperitoneal; details: in vivo, 0.25 h
[36] = Cytotoxicity against mouse RAW264.7 cells assessed as cell viability at 3 uM after 24 hrs by MTT assay; format: cell-based; details: read-out: Activity
Mus musculus [37] = test: Antiinflammatory activity against bradykinin-induced paw oedema in mouse at 10 mg/kg, ip treated 30 mins before bradykinin challenge measured after 30 mins by plethysmometry analysis; format: functional; details: route intraperitoneal
Mus musculus [38] = test: Antiinflammatory activity in mouse assessed as reduction in total cell count in peritoneal exudate during carrageenan-induced inflammation at 0.5 mg/kg, sc administered 4 hrs before carrageenan challenge measured after 4 hrs; format: functional; set-up: scale not given: the % may be the effect or the level left; details: route subcutaneous
Mus musculus [39] = test: Antiinflammatory activity in ip dosed mouse assessed as inhibition of acetic acid-induced abdominal constriction administered 30 mins before acetic acid challenge; format: functional, Abdomen
Mus musculus [40] = test: Antiinflammatory activity in mouse assessed as neutrophil population in peritoneal exudate during carrageenan-induced inflammation at 0.1 mg/kg, ip administered 30 mins before carrageenan challenge measured after 4 hrs by myeloperoxidase activity assay; format: functional; details: route intraperitoneal
[41] = Cytotoxicity against mouse RAW264.7 cells assessed as cell viability at 10 uM after 24 hrs by MTT assay; format: cell-based; details: read-out: Activity
Mus musculus [42] = test: Antiinflammatory activity against carrageenan-induced paw oedema in mouse at 10 mg/kg, ip treated 30 mins before carrageenan challenge measured after 4 hrs by plethysmometry analysis; format: functional; details: route intraperitoneal
Mus musculus [43] = test: Antiinflammatory activity against bradykinin-induced paw oedema in mouse at 10 mg/kg, ip treated 30 mins before bradykinin challenge measured after 60 mins by plethysmometry analysis; format: functional; details: route intraperitoneal
Mus musculus [44] = test: Neurotoxicity in mouse assessed as muscular impairment at 10 mg/kg, ip administered 15 mins before test measured after 60 seconds by rotarod test; format: toxicity, organism-based; set-up: dose 10 mg/kg, route intraperitoneal; details: in vivo, 0.25 h

Compound: COc1cc(/C=C/C(=O)/C=C/c2ccc(O)c(OC)c2)ccc1O
- inhibition in vivo at 1 mg/kg (Mus musculus [1]): 17.4%
- inhibition in vivo at 1 mg/kg (Mus musculus [2]): 4%
- inhibition in vivo at 1 mg/kg (Mus musculus [3]): 5.04%
- inhibition in vivo at 1 mg/kg (Mus musculus [4]): 14.6%
- inhibition in vivo at 1 mg/kg (Mus musculus [5]): 2.5%
- inhibition in vivo at 1 mg/kg (Mus musculus [6]): 10.1%
- inhibition in vivo at 1 mg/kg (Mus musculus [7]): 3.25%
- inhibition in vivo at 1 mg/kg (Mus musculus [8]): 15.1%
- inhibition in vivo at 1 mg/kg (Mus musculus [9]): 22.9%
- inhibition in vivo at 1 mg/kg (Mus musculus [10]): 2.2%

Compound: COc1cc(/C=C/C(=O)/C=C/c2ccc(OC(C)=O)c(OC)c2)ccc1OC(C)=O
- inhibition in vivo at 10 mg/kg (Mus musculus [11]): 8.57%
- Activity (Mus musculus [12]): 98%
- Activity (Mus musculus [13]): inactive
- inhibition at 100 µM (RAW264.7 [14]): 76%
- inhibition in vivo at 10 mg/kg (Mus musculus [15]): 12.1%
- inhibition at 10 µM (RAW264.7 [16]): 71%
- Activity (RAW264.7 [17]): 49 µM
- Activity (RAW264.7 [18]): 20 µM
- inhibition in vivo at 10 mg/kg (Mus musculus [19]): 4.25%
- Activity (Mus musculus [20]): Non-toxic
- inhibition in vivo at 10 mg/kg (Mus musculus [21]): 2.18%
- Activity (RAW264.7 [22]): 3 µM
- viability at 24 h, 1 µM [23]: > 90%
- inhibition in vivo at 10 mg/kg (Mus musculus [24]): 6.57%
- Activity (Mus musculus [25]): 50%
- inhibition in vivo at 10 mg/kg (Mus musculus [26]): 2.5%
- Activity (Mus musculus [27]): Non-toxic
- Activity (Mus musculus [28]): inactive
- inhibition in vivo at 10 mg/kg (Mus musculus [29]): 86%
- EC50 (Mus musculus [30]): 5.8 mg/kg
- Activity (Mus musculus [31]): 98%
- inhibition at 3 µM (RAW264.7 [32]): 48%
- Activity (Mus musculus [33]): 98%
- inhibition in vivo at 10 mg/kg (Mus musculus [34]): 10.8%
- Activity (Mus musculus [35]): Non-toxic
- viability at 24 h, 3 µM [36]: > 90%
- inhibition in vivo at 10 mg/kg (Mus musculus [37]): 3%
- Activity (Mus musculus [38]): 20%
- inhibition (INH) (Mus musculus [39]): 82.5%
- ED50 (Mus musculus [39]; Mus musculus, Abdomen, ip): 7.6 mg/kg
- Activity (Mus musculus [40]): 98%
- viability at 24 h, 10 µM [41]: > 90%
- inhibition in vivo at 10 mg/kg (Mus musculus [42]): 8.67%
- inhibition in vivo at 10 mg/kg (Mus musculus [43]): 2.8%
- Activity (Mus musculus [44]): Non-toxic

Compound: COc1ccc2c(c1)c(CC(=O)O)c(C)n2C(=O)c1ccc(Cl)cc1 [INDOMETHACIN]
- inhibition in vivo at 1 mg/kg (Mus musculus [1]): 7.14%
- inhibition in vivo at 1 mg/kg (Mus musculus [2]): 3.5%
- inhibition in vivo at 1 mg/kg (Mus musculus [3]): 5%
- inhibition in vivo at 1 mg/kg (Mus musculus [4]): 12.6%
- inhibition in vivo at 1 mg/kg (Mus musculus [5]): 2.09%
- inhibition in vivo at 1 mg/kg (Mus musculus [6]): 5.66%
- inhibition in vivo at 1 mg/kg (Mus musculus [7]): 2.5%
- inhibition in vivo at 1 mg/kg (Mus musculus [8]): 6.28%
- inhibition in vivo at 1 mg/kg (Mus musculus [9]): 10.8%
- inhibition in vivo at 1 mg/kg (Mus musculus [10]): 1.9%
